Earlier results in US6955904B2, “Gene coding for quinone oxidoreductase of kluyveromyces marxianus and protein expressed therefrom” (Korea Institute of Science and Technology, priority 2001, dated 2005).

What was measured:
[1] = target: T1, Arabidopsis thaliana quinone oxidoreductases (Arabidopsis thaliana, UniProt Q9LK88); conditions: Sparla et al., FEBS Letters 1999
T1 sequence (Q9LK88 1-196): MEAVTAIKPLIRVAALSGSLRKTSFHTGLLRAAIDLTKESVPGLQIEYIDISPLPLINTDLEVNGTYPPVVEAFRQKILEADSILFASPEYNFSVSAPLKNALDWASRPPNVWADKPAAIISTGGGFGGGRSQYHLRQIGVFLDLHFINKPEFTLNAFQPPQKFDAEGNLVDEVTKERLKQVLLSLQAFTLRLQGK

[2] = target: human quinone oxidoreductase (Homo sapiens, UniProt P15559); conditions: Siegel et al., Mol. Pharmacol. 1997
Chain of human quinone oxidoreductase (P15559 whole entry): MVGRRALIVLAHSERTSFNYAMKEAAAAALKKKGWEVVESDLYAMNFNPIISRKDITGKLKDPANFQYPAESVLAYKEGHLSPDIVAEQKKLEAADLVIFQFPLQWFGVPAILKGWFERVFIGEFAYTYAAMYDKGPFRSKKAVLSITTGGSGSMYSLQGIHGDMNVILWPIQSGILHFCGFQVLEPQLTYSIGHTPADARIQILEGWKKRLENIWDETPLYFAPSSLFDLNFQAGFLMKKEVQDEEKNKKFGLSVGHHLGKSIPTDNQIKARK

SMILES	rate constant for the reaction [1]	rate constant for the reaction [2]
CC1=C(C)C(=O)C(C)=C(C)C1=O [duroquinone]	3.2×10^7 M^−1m^−1	–
CC1=C(C)C(=O)C(CC[C@](C)(O)CCC[C@H](C)CCC[C@H](C)CCCC(C)C)=C(C)C1=O [α-tocopherol quinone]	–	1.5×10^7 M^−1m^−1
